Reference: PubChem BioAssay (NCI)
Several values for one entry are separate records, joined by “and”; a condition that tells them apart may be missing. Identical values can stand only once.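 Briefly, cells in 96-well plates were exposed to five compound concentrations for 48 h, and endpoints were estimated by linear interpolation. The concentration for 50% growth inhibition is given as GI50. TGI is the concentration that stops growth completely.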

Columns and labels:
Experiment in all cases: NCI-60 cell line screen, 48 h
A549 NSCLC = tested on: A549 NSCLC
SNB-75 CNS = tested on: SNB-75 CNS
EKVX NSCLC = tested on: EKVX NSCLC
KM12 colon = tested on: KM12 colon
NCI-H460 lung = tested on: NCI-H460 lung
NCI-H226 lung = tested on: NCI-H226 lung
SF-268 CNS = tested on: SF-268 CNS
MDA-MB-435 = tested on: MDA-MB-435
MDA-MB-231 breast = tested on: MDA-MB-231 breast
HS 578T breast = tested on: HS 578T breast

SMILES	TGI (A549 NSCLC)	TGI (SNB-75 CNS)	TGI (EKVX NSCLC)	TGI (KM12 colon)	TGI (NCI-H460 lung)	TGI (NCI-H226 lung)	TGI (SF-268 CNS)	GI50 (A549 NSCLC) [µM]	GI50 (MDA-MB-435) [µM]	TGI (MDA-MB-435) [µM]	GI50 (SNB-75 CNS) [µM]	GI50 (MDA-MB-231 breast) [µM]	TGI (MDA-MB-231 breast) [µM]	GI50 (EKVX NSCLC) [µM]	GI50 (KM12 colon)	GI50 (NCI-H226 lung)	GI50 (SF-268 CNS)	GI50 (HS 578T breast) [µM]	TGI (HS 578T breast) [µM]	GI50 (NCI-H460 lung) [µM]
O=c1c2ccccc2[nH]c(=S)n1-c1ccc(Br)cc1	> 100 µM	> 100 µM	> 100 µM	> 100 µM	> 100 µM	> 100 µM	> 100 µM	–	–	–	–	–	–	–	–	–	–	–	–	–
Cn1c2c(c3ccccc31)CCN(CCCCN1CCc3c(n(C)c4ccccc34)C1=O)C2	> 100 µM	> 100 µM	> 100 µM	–	> 100 µM	–	> 100 µM	–	–	–	–	–	–	–	–	–	–	–	–	–
Cc1cc(C)nc(NS(=O)(=O)c2ccc(Nc3c4ccccc4nc4c(C(=O)Nc5ccc(S(=O)(=O)N=C(N)N)cc5)ccc(Cl)c34)cc2)n1	> 100 µM	> 100 µM	> 100 µM	> 100 µM	> 100 µM	58.1 µM	97.2 µM	–	–	–	–	–	–	–	–	–	–	–	–	–
O=C(c1ccccc1)C(c1ccccc1)C1(O)C(=O)Nc2c(Cl)cc(Cl)cc21 (centres undefined)	41.8 µM	39.7 µM	27.8 µM	82.8 µM	> 100 µM	32.6 µM	51.9 µM	–	–	–	–	–	–	–	–	–	–	–	–	–
COc1ccc(-c2nc3sc(C)cn3c2/C=C/C(=O)c2cc(OC)c(OC)c(OC)c2)cc1	> 100 µM	> 100 µM	> 100 µM	6.39 µM	–	> 100 µM	> 100 µM	3.37	2.61	7.49	4.09	3.78	> 100	4.04	2.69 µM	4.12 µM	3.53 µM	–	–	–
Cc1ccc(OCC(=O)N2N=C(c3ccccc3)CC2(O)c2ccccc2)cc1 (centres undefined)	82.8 µM	> 100 µM	–	> 100 µM	28.2 µM	52.5 µM	> 100 µM	–	–	–	–	–	–	–	–	–	–	–	–	–
O=C(c1ccccc1)C(C(=O)c1ccccc1)C1(O)C(=O)c2ccccc2C1=O	> 100 µM	> 100 µM	> 100 µM	> 100 µM	–	> 100 µM	> 100 µM	–	–	–	–	–	–	–	–	–	–	–	–	–
O=C1C(=O)N(C(=O)c2ccc(Cl)c(Cl)c2)c2ccccc21	> 100 µM	> 100 µM	> 100 µM	> 100 µM	–	> 100 µM	> 100 µM	–	–	–	–	–	–	–	–	–	–	–	–	–
COC1=CC(=O)c2ccccc2C1(CCC=C(C)C)C1=NC(C)(C)CO1 (centres undefined)	> 100 µM	> 100 µM	> 100 µM	> 100 µM	> 100 µM	> 100 µM	> 100 µM	–	–	–	–	–	–	–	–	–	–	–	–	–
Cc1ccc(-[n+]2c3cc(N)c(C)cc3nc3cc(C)c(Nc4ccccc4)cc32)cc1	1.19 µM	0.419 µM	1.03 µM	0.3 µM	–	–	–	0.0441	0.0814	0.358	0.154	–	–	0.0651	0.0767 µM	–	–	0.0734	0.415	–
O=C(O)c1c(-c2cccc3ccccc23)sc(-c2cccc3ccccc23)c1C(=O)O	> 100 µM	> 100 µM	> 100 µM	> 100 µM	> 100 µM	> 100 µM	> 100 µM	–	–	–	–	–	–	–	–	–	–	–	–	–
CC1=C(C(=O)Nc2ccccc2C)C(c2ccccc2)C(C(=O)Nc2ccccc2C)=C(C)N1	> 100 µM	> 100 µM	> 100 µM	> 100 µM	> 100 µM	> 100 µM	> 100 µM	–	–	–	–	–	–	–	–	–	–	–	–	–
CCOC/N=C(/N)NC#N	> 100 µM	> 100 µM	> 100 µM	> 100 µM	> 100 µM	> 100 µM	> 100 µM	–	–	–	–	–	–	–	–	–	–	–	–	–
CC[C@H](C)N(CCN)C(=O)c1cc2ccccc2c(-c2ccccc2Cl)n1	> 100 µM	–	25.4 µM	29.6 µM	27.1 µM	29.7 µM	7.81 µM	–	–	–	–	–	–	–	–	–	–	–	–	–
Nc1ccn(CCOC(=O)c2ccccc2)c(=O)n1	> 100 µM	> 100 µM	> 100 µM	> 100 µM	> 100 µM	> 100 µM	> 100 µM	–	–	–	–	–	–	–	–	–	–	–	–	–
C[C@@H]1C[C@@H](O)[C@]2(O)O[C@@H]3C[C@@]4(C=O)[C@@H](CC[C@@H]5[C@@H]4CC[C@]4(C)[C@@H](C6=CC(=O)OC6)CC[C@]54O)C[C@H]3O[C@@H]2O1	0.0117 µM and 0.0413 µM	0.0919 µM and 0.22 µM and 0.288 µM	0.0964 µM and 0.104 µM	0.476 µM and 0.217 µM and 0.608 µM	0.0195 µM and 0.0817 µM and 0.0192 µM	0.0857 µM and 0.529 µM and 0.116 µM	0.0151 µM and 0.0247 µM and 0.0474 µM	0.0146	–	0.157	0.051	–	0.236	0.0104	0.0722 µM and 0.0346 µM	0.188 µM and 0.0333 µM	0.00621 µM and 0.005 µM	–	–	0.0229
CCc1cccc(C(C)C)c1NC(=O)C(=O)C(Cc1nc2ccccc2[nH]c1=O)C(=O)OC (centres undefined)	> 100 µM	> 100 µM	> 100 µM	> 100 µM	> 100 µM	> 100 µM	> 100 µM	–	–	–	–	–	–	–	–	–	–	–	–	–
CCC[CH2][Sn-]([CH2]CCC)([CH2]CCC)[O]c1cc(Cl)c(Cl)cc1Cl	0.502 µM	1.14 µM	0.9 µM	0.402 µM	0.344 µM	0.244 µM	1.05 µM	0.205	0.16	0.359	0.231	–	–	0.216	0.195 µM	0.00872 µM	0.229 µM	0.00467	0.212	0.165
